Results published in ChEMBL document CHEMBL5376025, “Colorectal anticancer activity of a novel class of triazolic triarylmethane derivatives” (RSC Med Chem, 2024).
Active and inactive are the calls of the source. No cut-off for these calls is given here.

Columns and labels:
HT-29 [1] = assay: Antiproliferative activity against human HT-29 cells assessed as inhibition of cell growth measured after 48 hrs by MTT assay; type: functional, cell-based; conditions: HT-29, 48 h
L929 = assay: Cytotoxicity against mouse L929 cells assessed as reduction in cell viability at 0.78 to 100 uM measured after 24 hrs by MTT colorimetric assay; type: toxicity, cell-based; conditions: l929, 24 h, dose 0.78-100 µM
HCT-116 [2] = assay: Antiproliferative activity against human HCT-116 cells assessed as inhibition of cell growth measured after 48 hrs by MTT assay; type: functional, cell-based; conditions: HCT-116, 48 h
[3] = Cytotoxicity against mouse L929 cells assessed as cell survival at 0.78 to 100 uM measured after 24 hrs by MTT colorimetric assay relative to control; type: toxicity, cell-based; conditions: dose 0.78-100 µM, read-out: Activity
HCT-116 [4] = assay: Antiproliferative activity against human HCT-116 cells assessed as inhibition of cell growth at 50 uM measured after 48 hrs by MTT assay; type: functional, cell-based; conditions: HCT-116, 48 h
HT-29 [5] = assay: Antiproliferative activity against human HT-29 cells assessed as inhibition of cell growth at 50 uM measured after 48 hrs by MTT assay; type: functional, cell-based; conditions: HT-29, 48 h
HCT-116 [6] = assay: Induction of apoptosis in human HCT-116 cells assessed as increase in cleaved caspase-3 expression measured after 48 hrs by Western blot analysis; type: functional, cell-based
HCT-116 [7] = assay: Induction of apoptosis in human HCT-116 cells assessed as inhibition of PARP expression by Western blot analysis; type: functional, cell-based; conditions: time 24-48 hrs, TDE = time-dependent effect
HT-29 [8] = assay: Induction of apoptosis in human HT-29 cells assessed as inhibition of capsase-3 expression measured after 24 to 48 hrs by Western blot analysis; type: functional, cell-based; conditions: time 24-48 hrs
HT-29 [9] = assay: Induction of apoptosis in human HT-29 cells assessed as increase in cleaved PARP expression measured after 48 hrs by Western blot analysis; type: functional, cell-based
HCT-116 [10] = assay: Induction of apoptosis in human HCT-116 cells assessed as inhibition of ERK phosphorylation level measured after 12 hrs by Western blotting analysis; type: functional, cell-based
HCT-116 [11] = assay: Induction of apoptosis in human HCT-116 cells assessed as fold increase in DNA fragmentation measured after 48 hrs by ELISA method; type: functional
HT-29 [12] = assay: Induction of apoptosis in human HT-29 cells assessed as increase in cleaved caspase-3 expression measured after 24 to 48 hrs by Western blot analysis; type: functional, cell-based; conditions: time 24-48 hrs
HCT-116 [13] = assay: Induction of apoptosis in human HCT-116 cells assessed as decrease in ERK phosphorylation level measured after 6 hrs by Western blotting analysis; type: functional, cell-based
HCT-116 [14] = assay: Induction of apoptosis in human HCT-116 cells assessed as downregulation of Akt phosphorylation level measured after 6 hrs by Western blotting analysis; type: functional, cell-based
HCT-116 [15] = assay: Induction of apoptosis in human HCT-116 cells assessed as increase in cleaved caspase-3 expression measured after 24 hrs by Western blot analysis; type: functional, cell-based
HCT-116 [16] = assay: Induction of apoptosis in human HCT-116 cells assessed as effect on ERK expression level measured after 6 to 12 hrs by Western blotting analysis; type: functional, cell-based; conditions: time 6-12 hrs
HCT-116 [17] = assay: Induction of apoptosis in human HCT-116 cells assessed as increase in cleaved PARP expression measured after 24 to 48 hrs by Western blot analysis; type: functional, cell-based; conditions: time 24-48 hrs
HCT-116 [18] = assay: Induction of apoptosis in human HCT-116 cells assessed as upregulation of Akt expression level measured after 6 to 12 hrs by Western blotting analysis; type: functional, cell-based; conditions: time 6-12 hrs
HCT-116 [19] = assay: Induction of apoptosis in human HCT-116 cells assessed as activation of p38 measured after 6 to 12 hrs by Western blotting analysis; type: functional, cell-based; conditions: time 6-12 hrs
HT-29 [20] = assay: Induction of apoptosis in human HT-29 cells assessed as inhibition of PARP expression by Western blot analysis; type: functional, cell-based; conditions: time 24-48 hrs, TDE = time-dependent effect
HT-29 [21] = assay: Induction of apoptosis in human HT-29 cells assessed as fold increase in DNA fragmentation measured after 48 hrs by ELISA method; type: functional
HCT-116 [22] = assay: Induction of apoptosis in human HCT-116 cells assessed as inhibition of capsase-3 expression measured after 24 to 48 hrs by Western blot analysis; type: functional, cell-based; conditions: time 24-48 hrs

| SMILES | IC50 (HT-29 [1]) [µM] | IC50 (HCT-116 [2]) [µM] | Activity (L929) | viability at 24 h, up to 100 µM [3] [%] | further results |
| --- | --- | --- | --- | --- | --- |
| OC[C@@H](O)[C@H]1O[C@H](O)[C@H](O)[C@H]1n1cc(COc2ccc(C(c3ccc(OCc4cn([C@@H]5[C@@H](O)[C@@H](O)O[C@@H]5[C@H](O)CO)nn4)cc3)c3ccccn3)cc2)nn1 (some centres undefined) | > 50 | > 50 |  |  |  |
| [O-][n+]1ccccc1C(c1ccc(OCc2cn(CCN3CCCCC3)nn2)cc1)c1ccc(OCc2cn(CCN3CCCCC3)nn2)cc1 | > 50 | > 50 |  |  | IC50 (HCT-116 [4]): > 50 µM; IC50 (HT-29 [5]): > 50 µM |
| c1ccc(Cn2cc(COc3ccc(C(c4ccc(OCc5cn(Cc6ccccc6)nn5)cc4)c4ccccn4)cc3)nn2)cc1 | > 50 | > 50 | Non-Toxic | 100 |  |
| C#CCOc1ccc(C(c2ccc(OCc3cnnn3CCCN)cc2)c2ccccn2)cc1 (centres undefined) | > 50 | > 50 | Non-Toxic | 100 |  |
| O[C@@H]1[C@@H](O)[C@@H](O)O[C@H](Cn2cc(COc3ccc(C(c4ccc(OCc5cn(C[C@H]6O[C@H](O)[C@H](O)[C@@H](O)[C@H]6O)nn5)cc4)c4ccccn4)cc3)nn2)[C@@H]1O (some centres undefined) | > 50 | > 50 |  |  |  |

Now from value to compound, other results behind:

| IC50 (HT-29 [1]) [µM] | IC50 (HCT-116 [2]) [µM] | SMILES | Activity (L929) | viability at 24 h, up to 100 µM [3] [%] | further results |
| --- | --- | --- | --- | --- | --- |
| > 50 | > 50 | C#CCOc1ccc(C(c2ccc(OCc3cn(Cc4ccccc4)nn3)cc2)c2ccccn2)cc1 (centres undefined) | Non-Toxic | 100 |  |
| 24.7 | 45 | C#CCOc1ccc(C(c2ccc(OCc3cn(CCN4CCCCC4)nn3)cc2)c2ccccn2)cc1 (centres undefined) | Non-Toxic | 100 |  |
| > 50 | > 50 | c1ccc(C(c2ccc(OCc3cn(C[C@H]4CCCN4)nn3)cc2)c2ccc(OCc3cn(C[C@H]4CCCN4)nn3)cc2)nc1 | Non-Toxic | 100 |  |
| 11 | 14.4 | c1ccc(C(c2ccc(OCc3cn(CCN4CCCCC4)nn3)cc2)c2ccc(OCc3cn(CCN4CCCCC4)nn3)cc2)nc1 | Non-Toxic | 100 | Activity (HCT-116 [6]): Active; Activity (HCT-116 [7]): Tde; Activity (HT-29 [8]): Active; Activity (HT-29 [9]): Active; Activity (HCT-116 [10]): Active; fold change (FC) (HCT-116 [11]): 6.73; Activity (HT-29 [12]): Active; Activity (HCT-116 [13]): Active; Activity (HCT-116 [14]): Active; Activity (HCT-116 [15]): inactive; Activity (HCT-116 [16]): inactive; Activity (HCT-116 [17]): Active; Activity (HCT-116 [18]): Active; Activity (HCT-116 [19]): inactive; Activity (HT-29 [20]): Tde; fold change (FC) (HT-29 [21]): 5.37; Activity (HCT-116 [22]): Active |
